# Experimental data reported in patent US20250145665A1, “MACROCYCLIC PEPTIDES USEFUL AS MODULATORS OF TNF ALPHA” (Bristol-Myers Squibb Company, priority 2023, published 2025).
# pIC50: −log10 of the molar value. Starred links: 1 amine or outer side, 2 acyl side, 3 side chain; linkers in the order of their positions; H or OH if unused. Positions of bridges follow the written chain, without caps; N, C: chain ends. Non-standard residues stand in square brackets, D forms with d. Residues, ends and D or L forms follow the SMILES beside them. *: point of attachment. Bip(4'-NHCO-C6H4-4-CH2COOH) = N[C@@H](Cc1ccc(-c2ccc(NC(=O)c3ccc(CC(=O)O)cc3)cc2)cc1)C(=O)O; Bip(4'-(3-HOOC-benzamido)) = N[C@@H](Cc1ccc(-c2ccc(NC(=O)c3cccc(C(=O)O)c3)cc2)cc1)C(=O)O; X56 = O=C(O)COc1cccc(NC(=O)c2ccc(-c3ccc(C[C@H](N[*:1])C(=O)[*:2])cc3)cc2)c1; X39 = Cn1nc(C(=O)NCc2ccc(-c3ccc(C[C@H](N[*:1])C(=O)[*:2])cc3)cc2)c2ccccc21; X5 = Cn1nc(C(=O)Nc2ccc(-c3ccc(C[C@H](N[*:1])C(=O)[*:2])cc3)cc2)c2ccccc21; dArg(ω-(2S)-2,3-diOHpropyl) = N=C(NCCC[C@@H](N)C(=O)O)NC[C@H](O)CO; Bip(4'-NH) = O=C([C@H](Cc1ccc(-c2ccc(N[*:3])cc2)cc1)N[*:1])[*:2]; Indazole3carbonyl(1-CH2COOH) = O=C(O)Cn1nc(C(=O)*)c2ccccc21; Bip(4'-COOH) = N[C@@H](Cc1ccc(-c2ccc(C(=O)O)cc2)cc1)C(=O)O; Bip(4'-NHAc) = CC(=O)Nc1ccc(-c2ccc(C[C@H](N)C(=O)O)cc2)cc1; X63 = N=C(NCCC[C@@H](N[*:1])C(=O)[*:2])NCCc1cccc(O)c1; Ala(morpholin-4-yl) = N[C@@H](CN1CCOCC1)C(=O)O; Benzoyl(4-OCH2COOH) = O=C(O)COc1ccc(C(=O)*)cc1; Phe(3-CONH2) = NC(=O)c1cccc(C[C@H](N)C(=O)O)c1; Bip = N[C@@H](Cc1ccc(-c2ccccc2)cc1)C(=O)O; Val(3-OH) = CC(C)(O)[C@H](N)C(=O)O; 2Pal = N[C@@H](Cc1ccccn1)C(=O)O; Tic = O=C(O)[C@@H]1Cc2ccccc2CN1; Cha = N[C@@H](CC1CCCCC1)C(=O)O; Tle = CC(C)(C)[C@H](N)C(=O)O; Sar = CNCC(=O)O
# Molecular target: TNFα (Homo sapiens, UniProt P01375)
# Test: TNF-Induced HEK-Blue Assay
# Assay type: cell-based
# Settings: not given
# Chain of TNFα (P01375 77-233 limits assumed): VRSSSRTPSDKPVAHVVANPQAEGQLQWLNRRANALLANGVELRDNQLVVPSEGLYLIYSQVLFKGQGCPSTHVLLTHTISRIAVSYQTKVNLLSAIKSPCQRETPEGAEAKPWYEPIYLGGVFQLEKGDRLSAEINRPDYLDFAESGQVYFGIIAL
row,SMILES,pIC50
1,CC(C)C[C@@H]1NC(=O)[C@H](CCCNC(=N)N)NC(=O)[C@H](C(C)C)NC(=O)[C@@H]2CCCN2C(=O)[C@H](C(C)C)NC(=O)[C@@H](CCCNC(=N)NCCc2cccc(O)c2)NC(=O)[C@H](CC(=O)O)NC(=O)[C@@H]2CCCN2C(=O)CN(C)C(=O)[C@H](Cc2ccc(-c3ccc(NC(=O)c4nn(CC(=O)O)c5ccccc45)cc3)cc2)NC(=O)[C@H](Cc2ccc(-c3ccccc3)cc2)NC(=O)[C@H](CN2CCOCC2)NC(=O)CSC[C@@H](C(=O)NCC(N)=O)NC1=O [Example 366] ({CH2CO}-[Ala(morpholin-4-yl)][Bip][Bip(4'-NH)](Indazole3carbonyl(1-CH2COOH))[Sar]PD[X63]VPVRLCG-NH2; thioether N-13),> 7.30

# Same assay, conditions: HEK-Blue-CD40L cells, NF-kB-driven secreted alkaline phosphatase reporter; TNFα 0.5 ng/ml; 18 h; read-out: TNF induced HEK-Blue assay IC50 value
row,SMILES,pIC50
1,CC(C)C[C@@H]1NC(=O)[C@H](Cc2ccc(O)cc2)NC(=O)[C@H](C(C)C)NC(=O)CN(C)C(=O)[C@H](C(C)C)NC(=O)[C@H](CCCNC(=N)N)NC(=O)[C@H](CC(=O)O)NC(=O)[C@@H]2CCCN2C(=O)CN(C)C(=O)[C@H](Cc2ccc(-c3ccccc3)cc2)NC(=O)[C@H](Cc2ccc(-c3ccccc3)cc2)NC(=O)[C@H](C(C)(C)O)NC(=O)CSC[C@@H](C(=O)NCC(N)=O)NC1=O [Example 141] ({CH2CO}-[Val(3-OH)][Bip][Bip][Sar]PDRV[Sar]VYLCG-NH2; thioether N-13),6.70 to 7.30
2,"CC(C)C[C@@H]1NC(=O)[C@H](CCCNC(=N)N)NC(=O)[C@H](C(C)C)NC(=O)[C@@H]2CCCN2C(=O)[C@H](C(C)C)NC(=O)[C@@H](CCCNC(=N)NC[C@H](O)CO)NC(=O)[C@H](CC(=O)O)NC(=O)[C@@H]2CCCN2C(=O)CN(C)C(=O)[C@H](Cc2ccc(-c3ccc(NC(=O)c4nn(C)c5ccccc45)cc3)cc2)NC(=O)[C@H](Cc2ccc(-c3ccccc3)cc2)NC(=O)[C@H](CN2CCOCC2)NC(=O)CSC[C@@H](C(=O)NCC(N)=O)NC1=O [Example 476] ({CH2CO}-[Ala(morpholin-4-yl)][Bip][X5][Sar]PD[dArg(ω-(2S)-2,3-diOHpropyl)]VPVRLCG-NH2; thioether N-13)",> 7.30
3,CC[C@H](C)[C@@H]1NC(=O)[C@@H]2CCCN2C(=O)[C@H]([C@@H](C)CC)NC(=O)[C@@H](CCCNC(=N)N)NC(=O)[C@H](CC(=O)O)NC(=O)[C@H](Cc2ccccc2)NC(=O)CN(C)C(=O)[C@H](Cc2ccc(-c3ccc(CNC(=O)c4nn(C)c5ccccc45)cc3)cc2)NC(=O)[C@H](Cc2ccc(-c3ccccc3)cc2)NC(=O)[C@H](CC2CCCCC2)NC(=O)CSC[C@@H](C(=O)NCC(N)=O)NC(=O)[C@H](CC(C)C)NC(=O)[C@H](Cc2cnc[nH]2)NC1=O [Example 400] ({CH2CO}-[Cha][Bip][X39][Sar]FD[dR]IPIHLCG-NH2; thioether N-13),5.70 to 6.70
4,CC(C)C[C@@H]1NC(=O)[C@H](Cc2ccc(O)cc2)NC(=O)[C@H](C(C)C)NC(=O)[C@@H]2Cc3ccccc3CN2C(=O)[C@H](C(C)C)NC(=O)[C@H](CCCNC(=N)N)NC(=O)[C@H](CC(=O)O)NC(=O)[C@H](Cc2ccc(O)cc2)NC(=O)CN(C)C(=O)[C@H](Cc2ccc(-c3ccccc3)cc2)NC(=O)[C@H](Cc2ccc(-c3ccccc3)cc2)NC(=O)[C@H](CN2CCOCC2)NC(=O)CSC[C@@H](C(=O)NCC(N)=O)NC1=O [Example 74] ({CH2CO}-[Ala(morpholin-4-yl)][Bip][Bip][Sar]YDRV[Tic]VYLCG-NH2; thioether N-13),5.70 to 6.70

# Further lines, results first:
row,pIC50,SMILES
1,> 7.30,CC(=O)Nc1ccc(-c2ccc(C[C@@H]3NC(=O)[C@H](Cc4ccc(-c5ccccc5)cc4)NC(=O)[C@H](C(C)(C)O)NC(=O)CSC[C@@H](C(=O)NCC(N)=O)NC(=O)[C@H](CC(C)C)NC(=O)[C@H](Cc4ccc(O)cc4)NC(=O)[C@H](C(C)C)NC(=O)[C@@H]4CCCN4C(=O)[C@H](Cc4ccc(O)cc4)NC(=O)[C@@H](CCCNC(=N)N)NC(=O)[C@H](CC(=O)O)NC(=O)[C@H](Cc4ccccn4)NC(=O)CN(C)C3=O)cc2)cc1 [Example 178] ({CH2CO}-[Val(3-OH)][Bip][Bip(4'-NHAc)][Sar][2Pal]D[dR]YPVYLCG-NH2; thioether N-13)
2,> 7.30,CC[C@H](C)[C@@H]1NC(=O)[C@@H](CCCNC(=N)N)NC(=O)[C@H](CC(=O)O)NC(=O)[C@H](Cc2cnc[nH]2)NC(=O)CN(C)C(=O)[C@H](Cc2ccc(-c3ccc(NC(=O)c4ccc(CC(=O)O)cc4)cc3)cc2)NC(=O)[C@H](Cc2ccc(-c3ccc(C(=O)O)cc3)cc2)NC(=O)[C@H](CC2CCCCC2)NC(=O)CSC[C@@H](C(=O)NCC(N)=O)NC(=O)[C@H](CC(C)C)NC(=O)[C@H](Cc2cccc(C(N)=O)c2)NC(=O)[C@H](C(C)C)NC(=O)[C@@H]2CCCN2C1=O [Example 589] ({CH2CO}-[Cha][Bip(4'-COOH)][Bip(4'-NHCO-C6H4-4-CH2COOH)][Sar]HD[dR]IPV[Phe(3-CONH2)]LCG-NH2; thioether N-13)
3,> 7.30,CC(C)C[C@@H]1NC(=O)[C@H](Cc2cnc[nH]2)NC(=O)[C@H](C(C)C)NC(=O)[C@@H]2CCCN2C(=O)[C@H](C(C)C)NC(=O)[C@@H](CCCNC(=N)N)NC(=O)[C@H](CC(=O)O)NC(=O)[C@H](Cc2cnc[nH]2)NC(=O)CN(C)C(=O)[C@H](Cc2ccc(-c3ccc(NC(=O)c4ccc(OCC(=O)O)cc4)cc3)cc2)NC(=O)[C@H](Cc2ccc(-c3ccccc3)cc2)NC(=O)[C@H](CC2CCCCC2)NC(=O)CSC[C@@H](C(=O)NCC(N)=O)NC1=O [Example 489] ({CH2CO}-[Cha][Bip][Bip(4'-NH)](Benzoyl(4-OCH2COOH))[Sar]HD[dR]VPVHLCG-NH2; thioether N-13)
4,> 7.30,CC(C)C[C@@H]1NC(=O)[C@H](Cc2ccc(O)cc2)NC(=O)[C@H](C(C)C)NC(=O)[C@@H]2CCCN2C(=O)[C@H](C(C)C)NC(=O)[C@@H](CCCNC(=N)N)NC(=O)[C@H](CC(=O)O)NC(=O)[C@H](Cc2ccc(O)cc2)NC(=O)CN(C)C(=O)[C@H](Cc2ccc(-c3ccccc3)cc2)NC(=O)[C@H](Cc2ccc(-c3ccccc3)cc2)NC(=O)[C@H](C(C)(C)O)NC(=O)CSC[C@@H](C(=O)NCC(N)=O)NC1=O [Example 69] ({CH2CO}-[Val(3-OH)][Bip][Bip][Sar]YD[dR]VPVYLCG-NH2; thioether N-13)
5,6.70 to 7.30,CC[C@H](C)[C@@H]1NC(=O)[C@@H](CCCNC(=N)N)NC(=O)[C@H](CC(=O)O)NC(=O)[C@H](Cc2cnc[nH]2)NC(=O)CN(C)C(=O)[C@H](Cc2ccc(-c3ccc(C(=O)Nc4cccc(OCC(=O)O)c4)cc3)cc2)NC(=O)[C@H](Cc2ccc(-c3ccccc3)cc2)NC(=O)[C@H](Cc2cccc(C(N)=O)c2)NC(=O)CSC[C@@H](C(=O)NCC(N)=O)NC(=O)[C@H](CC(C)C)NC(=O)[C@H](Cc2cnc[nH]2)NC(=O)[C@H](C(C)C)NC(=O)[C@@H]2CCCN2C1=O [Example 631] ({CH2CO}-[Phe(3-CONH2)][Bip][X56][Sar]HD[dR]IPVHLCG-NH2; thioether N-13)
6,> 7.30,CC[C@H](C)[C@@H]1NC(=O)[C@@H]2CCCN2C(=O)[C@H]([C@@H](C)CC)NC(=O)[C@@H](CCCNC(=N)N)NC(=O)[C@H](CC(=O)O)NC(=O)[C@H](Cc2ccccc2)NC(=O)CN(C)C(=O)[C@H](Cc2ccc(-c3ccc(NC(=O)c4cccc(C(=O)O)c4)cc3)cc2)NC(=O)[C@H](Cc2ccc(-c3ccc(C(=O)O)cc3)cc2)NC(=O)[C@H](C(C)(C)C)NC(=O)CSC[C@@H](C(=O)NCC(N)=O)NC(=O)[C@H](CC(C)C)NC(=O)[C@H](Cc2cnc[nH]2)NC1=O [Example 351] ({CH2CO}-[Tle][Bip(4'-COOH)][Bip(4'-(3-HOOC-benzamido))][Sar]FD[dR]IPIHLCG-NH2; thioether N-13)
